From PubChem BioAssay AID1845195 (Molecular Pharmacology Branch, DTP, NCI, 2023)

Tested on: 156681-154-R-J1 tumor spheroid viability
Test: Anticancer human tumor 156681-154-R-J1 patient-derived melanoma cell line growth inhibition
Settings: spheroids with HUVEC and MSC; for IC50: curve of first compound; for viability, T/C: stronger effect = lower value
In short: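 Complex tumor spheroids combined malignant cells with endothelial cells and mesenchymal stem cells. DNA-damaging drugs and DNA repair inhibitors were tested alone and in combination, at half-log dilutions down from clinical Cmax (top 10 microM if Cmax unknown), 0.25% DMSO final.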

[1] = second compound 0.003 µM, first compound 0.0316 µM
[2] = second compound 0.003 µM, first compound 0.1 µM
[3] = second compound 0.003 µM, first compound 0.316 µM
[4] = second compound 0.003 µM, first compound 1 µM
[5] = second compound 0.003 µM, first compound 3.16 µM
[6] = second compound 0.003 µM, first compound 10 µM
[7] = second compound 0.00949 µM, first compound 0.0316 µM
[8] = second compound 0.00949 µM, first compound 0.1 µM
[9] = second compound 0.00949 µM, first compound 0.316 µM
[10] = second compound 0.00949 µM, first compound 1 µM
[11] = second compound 0.00949 µM, first compound 3.16 µM
[12] = second compound 0.00949 µM, first compound 10 µM
[13] = second compound 0.03 µM, first compound 0.0316 µM
[14] = second compound 0.03 µM, first compound 0.1 µM
[15] = second compound 0.03 µM, first compound 0.316 µM
[16] = second compound 0.03 µM, first compound 1 µM
[17] = second compound 0.03 µM, first compound 3.16 µM
[18] = second compound 0.03 µM, first compound 10 µM
[19] = second compound 0.0949 µM, first compound 0.0316 µM
[20] = second compound 0.0949 µM, first compound 0.1 µM
[21] = second compound 0.0949 µM, first compound 0.316 µM
[22] = second compound 0.0949 µM, first compound 1 µM
[23] = second compound 0.0949 µM, first compound 3.16 µM
[24] = second compound 0.0949 µM, first compound 10 µM
[25] = second compound 0.3 µM, first compound 0.0316 µM
[26] = second compound 0.3 µM, first compound 0.1 µM
[27] = second compound 0.3 µM, first compound 0.316 µM
[28] = second compound 0.3 µM, first compound 1 µM
[29] = second compound 0.3 µM, first compound 3.16 µM
[30] = second compound 0.3 µM, first compound 10 µM
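Also: spheroids exposed to compounds for 7 days before readout.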
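For viability, T/C in this document: percent of vehicle control viability where 100% = DMSO-treated spheroids.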

Row | Compound | IC50 (second compound 0.003 µM) [nM] | IC50 (second compound 0.00949 µM) [nM] | IC50 (second compound 0.03 µM) [nM] | IC50 (second compound 0.0949 µM) [nM] | IC50 (second compound 0.3 µM) [nM] | viability, T/C [1] [%] | viability, T/C [2] [%] | viability, T/C [3] [%] | viability, T/C [4] [%] | viability, T/C [5] [%] | viability, T/C [6] [%] | viability, T/C [7] [%] | viability, T/C [8] [%] | viability, T/C [9] [%] | viability, T/C [10] [%] | viability, T/C [11] [%] | viability, T/C [12] [%] | viability, T/C [13] [%] | viability, T/C [14] [%] | viability, T/C [15] [%] | further results
1 | CC1COCCN1c1cc(-c2ccnn2C)c2ccnc(-c3ccn[nH]3)c2n1 (stereo not given) + CC[C@@]1(O)C(=O)OCc2c1cc1n(c2=O)Cc2cc3c(CN(C)C)c(O)ccc3nc2-1 | 175 | 194 | 52.4 | < 31.6 | < 31.6 | 83.5 | 62.5 | 36.7 | 27.1 | 26.7 | 23.9 | 60.7 | 66.5 | 39.9 | 31.9 | 29.6 | 23.6 | 55.2 | 44.8 | 32.8 | viability, T/C [16]: 28.5%; viability, T/C [17]: 27.4%; viability, T/C [18]: 23.5%; viability, T/C [19]: 26.3%; viability, T/C [20]: 26.6%; viability, T/C [21]: 28.3%; viability, T/C [22]: 27.5%; viability, T/C [23]: 26.7%; viability, T/C [24]: 21.1%; viability, T/C [25]: 35.2%; viability, T/C [26]: 34.3%; viability, T/C [27]: 39.6%; viability, T/C [28]: 37.2%; viability, T/C [29]: 29.6%; viability, T/C [30]: 27.6%
2 | COc1cc(C)[nH]c(=O)c1CN1CCc2c(Cl)cc(C(OC)C3COC3)c(Cl)c2C1=O (stereo not given) + CC[C@@]1(O)C(=O)OCc2c1cc1n(c2=O)Cc2cc3c(CN(C)C)c(O)ccc3nc2-1 | > 10000 | > 10000 | > 10000 | < 31.6 | < 31.6 | 106 | 93.3 | 120 | 99 | 95.3 | 96.8 | 105 | 83.2 | 91.6 | 88.7 | 84.7 | 92.3 | 80.4 | 71.1 | 77 | viability, T/C [16]: 86.3%; viability, T/C [17]: 77.7%; viability, T/C [18]: 84.9%; viability, T/C [19]: 28.8%; viability, T/C [20]: 31.6%; viability, T/C [21]: 34.6%; viability, T/C [22]: 32.3%; viability, T/C [23]: 32.5%; viability, T/C [24]: 49.5%; viability, T/C [25]: 38.6%; viability, T/C [26]: 42.4%; viability, T/C [27]: 38.1%; viability, T/C [28]: 39.4%; viability, T/C [29]: 40.1%; viability, T/C [30]: 38.2%
3 | Cc1cc(C)c(CNC(=O)c2cc(-c3ccc(CN4CCOCC4)cc3)cc3c2cnn3C2CCCC2)c(=O)[nH]1 + CC[C@@]1(O)C(=O)OCc2c1cc1n(c2=O)Cc2cc3c(CN(C)C)c(O)ccc3nc2-1 | > 10000 | > 10000 | 8490 | < 31.6 | < 31.6 | 137 | 111 | 86.7 | 87.8 | 84.4 | 82.9 | 83 | 81.6 | 73.8 | 84.8 | 84.5 | 79.5 | 65.7 | 66.6 | 55.4 | viability, T/C [16]: 57.7%; viability, T/C [17]: 49.3%; viability, T/C [18]: 51%; viability, T/C [19]: 23.4%; viability, T/C [20]: 17.8%; viability, T/C [21]: 25.1%; viability, T/C [22]: 20.6%; viability, T/C [23]: 17.5%; viability, T/C [24]: 22.2%; viability, T/C [25]: 31.3%; viability, T/C [26]: 29.5%; viability, T/C [27]: 31.8%; viability, T/C [28]: 30.9%; viability, T/C [29]: 27.6%; viability, T/C [30]: 30.6%
4 | [2H]c1nc(C)nc([2H])c1-c1cc(NC[C@@H](C)c2cccc3c(C(=O)NC)ccnc23)ncn1 + CC[C@@]1(O)C(=O)OCc2c1cc1n(c2=O)Cc2cc3c(CN(C)C)c(O)ccc3nc2-1 | > 10000 | > 10000 | > 10000 | < 31.6 | < 31.6 | 100 | 132 | 112 | 92.2 | 92.3 | 78 | 97.6 | 81.4 | 103 | 95.8 | 97.2 | 78.2 | 69.3 | 72.3 | 66.6 | viability, T/C [16]: 65.6%; viability, T/C [17]: 64.7%; viability, T/C [18]: 76%; viability, T/C [19]: 28.3%; viability, T/C [20]: 26.2%; viability, T/C [21]: 27.4%; viability, T/C [22]: 25%; viability, T/C [23]: 32.4%; viability, T/C [24]: 29.9%; viability, T/C [25]: 37.1%; viability, T/C [26]: 32.6%; viability, T/C [27]: 31.5%; viability, T/C [28]: 40.6%; viability, T/C [29]: 33.2%; viability, T/C [30]: 36.4%
